Key:
human estrogen receptor = molecular target: T1, human estrogen receptor (Homo sapiens, UniProt P03372); conditions: Murdter et al., Hum. Mol. Genet. 21:1145 (2012); cited from earlier work
T1 sequence (P03372 1-595): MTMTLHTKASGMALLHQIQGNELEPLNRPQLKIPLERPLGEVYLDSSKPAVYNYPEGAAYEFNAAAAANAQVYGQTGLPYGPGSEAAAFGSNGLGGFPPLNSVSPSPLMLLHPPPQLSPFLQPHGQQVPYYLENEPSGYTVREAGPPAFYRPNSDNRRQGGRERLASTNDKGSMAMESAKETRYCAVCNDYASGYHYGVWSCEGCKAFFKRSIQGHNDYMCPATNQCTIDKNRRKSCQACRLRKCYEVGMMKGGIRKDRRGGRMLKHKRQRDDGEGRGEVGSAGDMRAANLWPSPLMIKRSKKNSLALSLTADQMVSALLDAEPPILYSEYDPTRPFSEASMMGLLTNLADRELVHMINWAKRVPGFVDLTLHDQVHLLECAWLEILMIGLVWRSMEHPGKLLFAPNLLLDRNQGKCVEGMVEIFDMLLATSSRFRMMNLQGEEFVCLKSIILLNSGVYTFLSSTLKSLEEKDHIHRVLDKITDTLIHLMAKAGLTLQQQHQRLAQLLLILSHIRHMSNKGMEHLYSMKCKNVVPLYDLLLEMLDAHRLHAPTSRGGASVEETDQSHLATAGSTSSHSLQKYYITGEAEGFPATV

circulating IGF-1 = conditions: Campbell et al., J. Clin. Pathol: Mol Pathol. 54:307 (2001); cited from earlier work
[1] = test system: serum (circulating) IGF-1; test: First clinical study: serum IGF-1 by immunoenzymometric assay, trans-clomiphene vs Testim over six months; assay type: in vivo, human
Method: The effect of the isolated trans-clomiphene isomer on free serum IGF-1 was tested in three separate clinical studies.
Adult male subjects with a morning total testosterone blood level of <300 ng/dl and a serum LH of <15 IU/ml who had previously undergone between 6 months and two years of topical testosterone therapy were administered either trans-clomiphene (25 mg/day via oral capsule) or a topical testosterone gel (Testim®, 50 mg applied daily) over a six month period according to the first study. Following an initial screening visit (Visit 1-V1), topical testosterone replacement therapy in the subjects was discontinued for either three weeks or three months. At the end of the washout period (Visit 2-V2), quantitative determination of baseline serum (circulating) IGF-1 measurements were made in the subjects by immunoenzymometric assay (Immunodiagnostics Systems Ltd., OCTEIA® IGF-1 kit) and treatment with either trans-clomiphene or Testim® was initiated. Follow-up measurements were taken at 3 months post initial dose (Visit 4-V4), 6 months post initial dose (Visit 5-V5) and one month after cessation of treatment (Visit 6-V6). Seven subjects completed six months of trans-clomiphene therapy and five subjects completed six months of Testim® therapy. The results are presented at FIG. 1. At baseline (V2), serum IGF-1 levels in both patient groups averaged about 140 ng/ml. […] Thus, circulating serum IGF-1 levels were reduced over 40% in subjects administered trans-clomiphene whereas exogenous testosterone had no effect on circulating serum IGF-1. Importantly, aside from low testosterone, these subjects were otherwise healthy—thus, administering trans-clomiphene provides an effective method for reducing serum levels of IGF-1 produced by the liver (i.e. growth-hormone dependent IGF-1).

serum IGF-1 [2] = test: Second clinical study: serum IGF-1 after three months of trans-clomiphene or placebo; assay type: in vivo, human; conditions: for Mean Change from Baseline (st dev): P<0.0001 vs placebo; for mean reduction in serum IGF-1 levels: three months
Method: Another study measured serum IGF-1 levels in human males with low/low-normal testosterone following treatment with trans-clomiphene. Briefly 38 males were administered trans-clomiphene at 12.5 mg per day, 35 males were administered trans-clomiphene at 25 mg per day and 43 males were administered a placebo (control group). Serum IGF-1 levels were measured by immunoenzymometric assay as described above at baseline and following three months of treatment with trans-clomiphene or placebo for each treatment group.

serum IGF-1 [3] = test: Third clinical study: IGF-1 after 6 weeks of trans-clomiphene compared to AndroGel; assay type: in vivo, human
[4] = test system: corticotropin, prolactin or thyroid stimulating hormone; test: Studies on the effects of enclomiphine on men: other hormones secreted by the pituitary; assay type: in vivo, human
Description: The present invention provides methods for reducing IGF-1 levels in a subject in need of such treatment. […] Clomiphene is thought to exert its effects at the level of the hypothamus-pituitary axis by specifically stimulating secretion of the gonadotropic hormones LH and FSH. Neither of these gonadotropic hormones is known to play a general role in establishment or proliferation of cancer. Studies on the effects of enclomiphine on men found no changes in other hormones secreted by the pituitary such as corticotropin, prolactin or thyroid stimulating hormone. Growth hormone (GH), secreted by the pituitary is known to drive production of IGF-1 by the liver. Without wishing to be bound by theory it is believed that trans-clomiphene suppresses the pituitary production of GH thereby reducing the endocrine stimulated production of liver IGF-1. The activity of trans-clomiphene in reducing serum IGF-1 levels, renders the compositions useful for treating a variety of cancers having strong expression or overexpression of IGF-1 as a common underlying etiology.

CCN(CC)CCOc1ccc(C(=C(Cl)c2ccccc2)c2ccc(O)cc2)cc1 [4-hydroxy-trans-clomiphene]
ligand strength for the human estrogen receptor (human estrogen receptor): strong ligands

CCC(=C(c1ccccc1)c1ccc(OCCN(C)C)cc1)c1ccccc1 [tamoxifen, 2-[4-(1,2-diphenylbut-1-enyl)phenoxy]-N,N-dimethyl-ethanamine]
change to circulating IGF-1 levels after treatment (circulating IGF-1): no change

CCN(CC)CCOc1ccc(/C(=C(/Cl)c2ccccc2)c2ccccc2)cc1 [trans-clomiphene]
serum IGF-1 level at baseline (V2) ([1]; group average at end of washout, before treatment, hypogonadal adult males): about 140 ng/ml | serum IGF-1 level after 3 months of treatment (V4) ([1]; trans-clomiphene 25 mg/day oral capsule, n=7): below 80 ng/ml | serum IGF-1 after 6 months of treatment (V5) ([1]; trans-clomiphene 25 mg/day oral or Testim 50 mg daily topical): remained depressed | reduction of circulating serum IGF-1 ([1]; trans-clomiphene 25 mg/day, vs baseline): over 40% | Baseline IGF-1 (st dev) (serum IGF-1 [2]; 12.5 mg per day group, n=38, before treatment): 115.2 (35.11) μg/L | Mean Change from Baseline (st dev) (serum IGF-1 [2]; 12.5 mg per day, n=38, month 3): −36.8 (22.3) μg/L | Month 3 IGF-1 (st dev) (serum IGF-1 [2]; 12.5 mg per day, n=38, three months of treatment): 77.3 (30.8) μg/L | mean reduction in serum IGF-1 levels (serum IGF-1 [2]; 12.5 mg per day): ~32% | Baseline IGF-1 (st dev) (serum IGF-1 [2]; 25 mg per day group, n=35, before treatment): 107.2 (39.4) μg/L | Mean Change from Baseline (st dev) (serum IGF-1 [2]; 25 mg per day, n=35, month 3): −38.3 (29.5) μg/L | Month 3 IGF-1 (st dev) (serum IGF-1 [2]; 25 mg per day, n=35, three months of treatment): 70.4 (38.6) μg/L | mean reduction in serum IGF-1 levels (serum IGF-1 [2]; 25 mg per day): 36% | IGF-1 - Naïve men (serum IGF-1 [3]; 6.25 mg daily group, n=12, baseline): 101 ± 43 µg/L | IGF-1 - Treated men (serum IGF-1 [3]; 6.25 mg daily, n=12, after 6 weeks, p = 0.008 compared to AndroGel (MWW)): 54 ± 30 µg/L | IGF-1 - Naïve men (serum IGF-1 [3]; 12.5 mg daily group, n=10, baseline): 94 ± 47 µg/L | IGF-1 - Treated men (serum IGF-1 [3]; 12.5 mg daily, n=10, after 6 weeks, p = 0.0035 compared to AndroGel (MWW)): 50 ± 24 µg/L | IGF-1 - Naïve men (serum IGF-1 [3]; 25 mg daily group, n=12, baseline): 96 ± 45 µg/L | IGF-1 - Treated men (serum IGF-1 [3]; 25 mg daily, n=12, after 6 weeks, p = 0.008 compared to AndroGel (MWW)): 62 ± 42 µg/L | changes in other hormones secreted by the pituitary (corticotropin, prolactin, thyroid stimulating hormone) [4]: no changes
